We go through 15 molecules from patent publication US7842817B2, “2-amino benzimidazole derivatives and their use as modulators of small-conductance calcium-activated potassium channels” (Neurosearch A/S, priority 2005, dated 2010).

Structures can show the parent of a compound that is named as a salt. Bounds are passed on as bounds.

As usually defined, the melting point is the temperature, or range, at which the solid turns liquid.

Take `N=c1n(Cc2ccc(F)c(F)c2)c2ccccc2n1-c1ccc(F)c(F)c1` (as salt: hydrobromid) [Example 13, 1-(3,4-Difluorobenzyl)-3-(3,4-difluorophenyl)-1,3-dihydrobenzoimidazol-2-ylideneamine]: the melting point was in the range of 259 to 260 °C.
Molecule `Fc1ccc(Cn2c(Nc3ccc(F)c(F)c3)nc3ccccc32)cc1F` (as salt: hydrochloride) [Example 5, N-[1-(3,4-Difluorobenzyl)benzimidazol-2-yl]-3,4-difluoroaniline] returned a melting point of 236 to 238 °C.
To `N=c1n(Cc2ccc(Cl)cc2)c2ccccc2n1Cc1ccc(Cl)cc1` [Example 1, 1,3-Bis(4-chlorobenzyl)-1,3-dihydrobenzoimidazol-2-ylideneamine] belongs 185 to 187 °C; to `N=c1n(Cc2ccc(Cl)c(Cl)c2)c2ccccc2n1Cc1ccc(Cl)c(Cl)c1` [Example 2, 1,3-Bis(3,4-dichlorobenzyl)-1,3-dihydrobenzoimidazol-2-ylideneamine], 145 to 146 °C; to `N=c1n(Cc2ccc(F)cc2)c2ccccc2n1Cc1ccc(F)cc1` [Example 3, 1,3-Bis(4-fluorobenzyl)-1,3-dihydrobenzoimidazol-2-ylideneamine], 148 to 150 °C.
As for `N=c1n(Cc2ccc(F)c(F)c2)c2ccccc2n1Cc1ccc(F)c(F)c1` [Example 4, 1,3-Bis(3,4-difluorobenzyl)-1,3-dihydrobenzoimidazol-2-ylideneamine], the figure is 114 to 117 °C; as for `Fc1ccc(Cn2c(Nc3ccc(C(F)(F)F)cc3)nc3ccccc32)cc1F` [Example 7, N-[1-(3,4-Difluorobenzyl)benzimidazol-2-yl]-4-trifluoromethylaniline], 167 to 170 °C.
`FC(F)(F)c1cc(Cn2c(Nc3ccc(Cl)c(C(F)(F)F)c3)nc3ccccc32)ccc1Cl` [Example 8, N-[1-(4-Chloro-3-trifluoromethylbenzyl)benzimidazol-2-yl]-4-chloro-3-trifluoromethylaniline] gave a melting point of 88 to 92 °C.
As for `Fc1ccc(CNc2nc3ccccc3n2Cc2ccc(Cl)c(C(F)(F)F)c2)cc1F` [Example 9, N-[1-(4-Chloro-3-trifluoromethylbenzyl)benzimidazol-2-yl]-3,4-difluorobenzylamine], the figure is 158 to 161 °C; as for `N=c1n(Cc2cc(F)cc(F)c2)c2ccccc2n1Cc1cc(F)cc(F)c1` [Example 12, 1,3-Bis(3,5-difluorobenzyl)-1,3-dihydrobenzoimidazol-2-ylideneamine], 144 to 145 °C.
Regarding `N=c1n(Cc2ccc(F)c(F)c2)c2ccc(F)cc2n1Cc1ccc(F)c(F)c1` [Example 15, 1,3-Bis(3,4-difluorobenzyl)-5-fluoro-1,3-dihydrobenzoimidazol-2-ylideneamine], the melting point is > 166 °C (dec.).
As for `N=c1n(Cc2cccc(C(F)(F)F)c2)c2ccccc2n1Cc1cccc(C(F)(F)F)c1` [Example 16, 1,3-Bis[3-(trifluoromethyl)benzyl]-1,3-dihydrobenzoimidazol-2-ylideneamine], the figure is 175 to 177 °C.
`N=c1n(Cc2ccc(F)c(F)c2)c2ccc(Br)cc2n1Cc1ccc(F)c(F)c1` [Example 17, 1,3-Bis(3,4-difluorobenzyl)-5-bromo-1,3-dihydrobenzoimidazol-2-ylideneamine] returned a melting point of 88 to 89.5 °C.
To `Fc1ccc(CNc2nc3ccccc3n2-c2ccc(F)c(F)c2)cc1F` [Example 19, (3,4-Difluorobenzyl)-[1-(3,4-difluorophenyl)-1H-benzoimidazol-2-yl]amine] belongs 158.5 to 159.5 °C; to `Fc1ccc(Nc2nc3ccccc3n2-c2ccc(F)c(F)c2)cc1F` [Example 20, (3,4-Difluorophenyl)-[1-(3,4-difluorophenyl)-1H-benzoimidazol-2-yl]amine], 115 to 117 °C.
